This is an account of results in US9505795B2, “Method for producing scyllo-inositol” (Asahi Kasei Chemicals Corporation, priority 2012, dated 2016).

Data set [1] is described as follows: water solubility compared with scyllo-inositol. Format: physicochemical. To be noted: 25° C., W/V; ratio to scyllo-inositol. From the text:
Since the scyllo-inositol derivative of the present invention can be produced and treated at high concentration in an aqueous solution, producing scyllo-inositol by obtaining the scyllo-inositol derivative of the present invention and treating it enzymatically has many advantages. Such methods are therefore one preferred method of utilizing the scyllo-inositol derivative of the present invention.

The next data set deals with amyloid β protein. To be noted: reported in Non-patent Reference 1; cited from earlier work.

For the compound `OC[C@@H]1O[C@@H](O[C@H]2[C@H](O)[C@H](O)[C@H](O)[C@@H](O)[C@H]2O)[C@@H](O)[C@@H](O)[C@@H]1O` [scyllo-inositol derivative, 1-O-β-D-glucopyranosyl-scyllo-inositol], the “water solubility relative to the original scyllo-inositol” value in data set [1] is “at least four”.

On to `O[C@H]1[C@H](O)[C@@H](O)[C@H](O)[C@@H](O)[C@@H]1O` [scyllo-inositol, cis-1,3,5-trans-2,4,6-cyclohexanehexyl], for which the “effect on amyloid β protein aggregation” value in the data set on amyloid β protein was “inhibitory effect”.
